We go through eight molecules from ChEMBL document CHEMBL1949520, “Synthesis of terphenyl benzimidazoles as tubulin polymerization inhibitors” (2012).

Type in all cases: functional
The subject of one assay is MCF7. Put plainly: Growth inhibition of human MCF7 cells by SRB assay. Background: Sulforhodamine B stains cellular protein and so reports cell mass.
Assay [1] in a line: Growth inhibition of human DWD cells by SRB assay.
For another assay, the system named is ZR-75-1. Put plainly: Growth inhibition of human ZR-75-1 cells by SRB assay.
In another assay the test system is A2780. Put plainly: Growth inhibition of human A2780 cells by SRB assay.
Another assay relates to HOP-62. Put plainly: Growth inhibition of human HOP62 cells by SRB assay.
The subject of a further assay is SiHa. As to the kind of experiment: Growth inhibition of human SiHa cells by SRB assay.
For another assay, the system named is PC-3. Put plainly: Growth inhibition of human PC3 cells by SRB assay.
Another assay relates to A549. Put plainly: Growth inhibition of human A549 cells by SRB assay.
For a further assay, the system named is COLO 205. As to the kind of experiment: Growth inhibition of human COLO205 cells by SRB assay.
Assay [2] is described as follows: Growth inhibition of human Gurav cells by SRB assay.
The test system of another assay is KB. As to the kind of experiment: Growth inhibition of human KB cells by SRB assay.

Consider `Oc1ccc(-c2ccc(-c3ccc(-c4nc5ccccc5[nH]4)cc3)cc2)cc1`, for which the 50% growth inhibitory concentration (GI50) (usually the concentration giving 50% growth inhibition) with MCF7 was determined as 30.5 µM; in [1], 46.3 µM; with ZR-75-1, 100 µM; with A2780, 36 µM; with HOP-62, 47.2 µM; in the assay with SiHa it was 33.3 µM. Also, the GI50 worked out at 47 µM in the assay with PC-3; 33.1 µM in the assay on A549; 100 µM with COLO 205; 100 µM in assay [2]; 41 µM with KB.
On to `FC(F)(F)Oc1ccc(-c2ccc(-c3ccc(-c4nc5ccccc5[nH]4)cc3)cc2)cc1`, for which the GI50 worked out at 38.4 µM in the assay with MCF7; 100 µM in assay [1]; 100 µM in the assay on ZR-75-1; 100 µM in the assay with A2780; 100 µM in the assay on HOP-62; 38.4 µM in the assay with SiHa. Also, the GI50 with PC-3 stood at 100 µM; with A549, 38 µM; with COLO 205 it was 100 µM; in assay [2] it was 100 µM; in the assay with KB, 39.1 µM.
For the molecule `Cc1ccc2[nH]c(-c3ccc(-c4ccc(-c5ccc(OC(F)(F)F)cc5)cc4)cc3)nc2c1`, the GI50 with MCF7 amounted to 31 µM; in [1], 41.1 µM; in the assay on ZR-75-1, 2.41 µM; in the assay on A2780 it was 12.3 µM; with HOP-62 it was 24.2 µM; in the assay with SiHa, 28.3 µM. The GI50 in the assay on PC-3 is 2.01 µM; with A549 it was 3.56 µM; in the assay on COLO 205 it was 30.6 µM; in [2], 11 µM; with KB, 41.2 µM.
`Cc1ccc2[nH]c(-c3ccc(-c4ccc(-c5cccc(Cl)c5)cc4)cc3)nc2c1`: the GI50 was found to be 1.21 µM in the assay with MCF7; 2.51 µM in assay [1]; 3.45 µM with ZR-75-1; 2.8 µM in the assay on A2780; 2.74 µM in the assay with HOP-62; 3.6 µM in the assay on SiHa. The GI50 came to 2.67 µM with PC-3; 2.8 µM in the assay on A549; 2.78 µM with COLO 205; 2.12 µM in assay [2]; 2.26 µM in the assay on KB.
Regarding `Oc1cccc2[nH]c(-c3ccc(-c4ccc(-c5ccc(C(F)(F)F)cc5)cc4)cc3)nc12`, the GI50 stood at 2.31 µM in the assay on MCF7; 3.18 µM in assay [1]; 5.11 µM in the assay with ZR-75-1; 6.1 µM in the assay with A2780; 3.2 µM in the assay on HOP-62; 3.72 µM in the assay with SiHa. Moreover, the 50% growth inhibitory concentration (GI50) in the assay on PC-3 worked out at 2.26 µM; in the assay on A549, 3.61 µM; in the assay with COLO 205, 3.41 µM; in assay [2], 3.19 µM; in the assay on KB it was 4.32 µM.
For `Oc1cccc2[nH]c(-c3ccc(-c4ccc(-c5ccc(OC(F)(F)F)cc5)cc4)cc3)nc12`, the GI50 in the assay with MCF7 was 2.21 µM; in assay [1], 3.1 µM; with ZR-75-1 it was 3.8 µM; in the assay on A2780, 2.9 µM; in the assay on HOP-62, 2.27 µM; in the assay on SiHa, 8.41 µM. Besides, the GI50 with PC-3 came out at 7.41 µM; in the assay with A549, 0.19 µM; with COLO 205 it was 8.32 µM; in [2], 3.6 µM; with KB, 3.31 µM.
Consider `Cc1ccc2[nH]c(-c3ccc(-c4ccc(-c5ccc(N(C)C)cc5)cc4)cc3)nc2c1`, for which the GI50 in the assay on MCF7 was found to be 3.13 µM; in assay [1], 3.23 µM; with ZR-75-1, 7.2 µM; in the assay on A2780, 2.21 µM; in the assay with HOP-62 it was 4.23 µM; in the assay with SiHa it was 7.11 µM. Also, the GI50 in the assay with PC-3 is 8.12 µM; in the assay on A549, 3.51 µM; with COLO 205, 9.21 µM; in assay [2] it was 6.24 µM; in the assay with KB, 6.24 µM.
In the case of `Fc1ccc(-c2ccc(-c3ccc(-c4nc5ccccc5[nH]4)cc3)cc2)cc1`, the GI50 is 36.2 µM with MCF7; 35.6 µM in [1]; 100 µM in the assay on ZR-75-1; 48.2 µM with A2780; 39.3 µM in the assay on HOP-62; 29.7 µM in the assay on SiHa. The GI50 turned out to be 41.2 µM in the assay on PC-3; 33.2 µM in the assay with A549; 100 µM in the assay on COLO 205; 100 µM in [2]; 41.3 µM in the assay with KB.
